According to US8802665B2, “Pyrrolidine derivatives” (Hoffman-La Roche Inc., priority 2012, dated 2014):
Structures can show the parent of a compound that is named as a salt.

These molecules were tested against human Cat S (Homo sapiens (Human), UniProt P25774) (assay: Cathepsin enzyme inhibition assay (fluorogenic peptide substrate cleavage)). Details: human Cathepsin S 1 nM, substrate Z-Val-Val-Arg-AMC 20 μM, pH 6.5; read-out: Ic50 CatS: human.
Sequence of human Cat S (P25774 115-331): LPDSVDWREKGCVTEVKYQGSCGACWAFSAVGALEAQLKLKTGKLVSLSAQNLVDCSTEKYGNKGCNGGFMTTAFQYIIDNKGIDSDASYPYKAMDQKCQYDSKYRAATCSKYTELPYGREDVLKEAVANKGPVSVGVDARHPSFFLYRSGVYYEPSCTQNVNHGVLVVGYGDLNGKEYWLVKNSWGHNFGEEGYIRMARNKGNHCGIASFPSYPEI
Format: biochemical
Experimental: Cathepsin Enzyme Inhibition Assay
Enzyme activity is measured by observing the increase in fluorescence intensity caused by cleavage of a peptide substrate containing a fluorophore whose emission is quenched in the intact peptide. • Assay buffer: 100 mM potassium phosphate pH 6.5, EDTA-Na 5 mM, Triton X-100 0.001%, DTT 5 mM. • Enzymes (all at 1 nM): human and mouse Cathepsin S, Cat K, Cat B, Cat L. • Substrate (20 μM): Z-Val-Val-Arg-AMC, except for Cat K which uses Z-Leu-Arg-AMC (both from Bachem). • Z=Benzyloxycarbonyl. • AMC=7-Amino-4-Methyl-Coumarin. • DTT=dithiothreitol. • Final volume: 100 μL. • Excitation 360 nm, Emission 465 nm.
Enzyme is added to the substance dilutions in 96-well microtitre plates and the reaction is started with substrate. Fluorescence emission is measured over 20 minutes, during which time a linear increase is observed in the absence of inhibitor. IC50 are calculated by standard methods.
Inhibition of human Cat S, mouse Cat S, human Cat K, human Cat B, human Cat L and mouse Cat L have been measured separately. The results obtained for human Cat S for representative compounds of the invention are expressed in the following table in μM.
Molecule `N#CC1(NC(=O)[C@@H]2C[C@@H](S(=O)(=O)c3ccccc3Cl)CN2C(=O)C2CCN2C2CCCCC2)CC1` (stereo partly drawn) [Example 1, (2S,4R)-4-(2-Chlorophenylsulfonyl)-N-(1-cyanocyclopropyl)-1-(1-cyclohexylazetidine-2-carbonyl)pyrrolidine-2-carboxamide] has an IC50 of 1.7 nM.
`N#CC1(NC(=O)[C@@H]2C[C@@H](S(=O)(=O)c3ccccc3Cl)CN2C(=O)C2CCN2C2CCC(F)(F)CC2)CC1` (stereo partly drawn) [Example 2, (2S,4R)-4-(2-Chlorophenylsulfonyl)-N-(1-cyanocyclopropyl)-1-(1-(4,4-difluorocyclohexyl)azetidine-2-carbonyl)pyrrolidine-2-carboxamide] was tested, and the IC50 was 1 nM.
With `CC1(C)CCC(N2CCC2C(=O)N2C[C@H](S(=O)(=O)c3ccccc3Cl)C[C@H]2C(=O)NC2(C#N)CC2)CC1` (stereo partly drawn) [Example 3, (2S,4R)-4-(2-Chlorophenylsulfonyl)-N-(1-cyanocyclopropyl)-1-(1-(4,4-dimethylcyclohexyl)azetidine-2-carbonyl)pyrrolidine-2-carboxamide] the IC50 was 3.8 nM.
`Cc1nsc(N2CCC(N3CCC3C(=O)N3C[C@H](S(=O)(=O)c4ccccc4Cl)C[C@H]3C(=O)NC3(C#N)CC3)CC2)n1` (stereo partly drawn) [Example 4, (2S,4R)-4-(2-Chlorophenylsulfonyl)-N-(1-cyanocyclopropyl)-1-(1-(1-(3-methyl-1,2,4-thiadiazol-5-yl)piperidin-4-yl)azetidine-2-carbonyl)pyrrolidine-2-carboxamide formate] was tested, and the IC50 was 0.9 nM.
With `N#CC1(NC(=O)[C@@H]2C[C@@H](S(=O)(=O)c3ccccc3Cl)CN2C(=O)C2CCN2C2CCOCC2)CC1` (stereo partly drawn) [Example 5, (2S,4R)-4-(2-Chlorophenylsulfonyl)-N-(1-cyanocyclopropyl)-1-(1-(tetrahydro-2H-pyran-4-yl)azetidine-2-carbonyl)pyrrolidine-2-carboxamide formate] the IC50 was 0.8 nM.
With `CC(=O)N1CCC(N2CCC2C(=O)N2C[C@H](S(=O)(=O)c3ccccc3Cl)C[C@H]2C(=O)NC2(C#N)CC2)CC1` (stereo partly drawn) [Example 6, (2S,4R)-1-(1-(1-Acetylpiperidin-4-yl)azetidine-2-carbonyl)-4-(2-chlorophenylsulfonyl)-N-(1-cyanocyclopropyl)pyrrolidine-2-carboxamide] the IC50 was 1.3 nM.
`N#CC1(NC(=O)[C@@H]2C[C@@H](S(=O)(=O)c3ccccc3Cl)CN2C(=O)C2CCN2C2CCN(CC(F)(F)F)CC2)CC1` (stereo partly drawn) [Example 7, (2S,4R)-4-(2-Chlorophenylsulfonyl)-N-(1-cyanocyclopropyl)-1-(1-(1-(2,2,2-trifluoroethyl)piperidin-4-yl)azetidine-2-carbonyl)pyrrolidine-2-carboxamide] was tested, and the IC50 was 3.9 nM.
Work on `CC1(C)CC(N2CCC2C(=O)N2C[C@H](S(=O)(=O)c3ccccc3Cl)C[C@H]2C(=O)NC2(C#N)CC2)CCO1` (stereo partly drawn) [Example 8, (2S,4R)-4-(2-Chlorophenylsulfonyl)-N-(1-cyanocyclopropyl)-1-(1-(2,2-dimethyltetrahydro-2H-pyran-4-yl)azetidine-2-carbonyl)pyrrolidine-2-carboxamide] yielded an IC50 of 2.5 nM.
With `N#CC1(NC(=O)[C@@H]2C[C@@H](S(=O)(=O)c3ccccc3Cl)CN2C(=O)C2CCN2C2CCCC2)CC1` (stereo partly drawn) [Example 9, (2S,4R)-4-(2-Chlorophenylsulfonyl)-N-(1-cyanocyclopropyl)-1-(1-cyclopentylazetidine-2-carbonyl)pyrrolidine-2-carboxamide] the IC50 was 2 nM.
For `N#CC1(NC(=O)[C@@H]2C[C@@H](S(=O)(=O)c3ccccc3Cl)CN2C(=O)C2CCN2C2CCSCC2)CC1` (stereo partly drawn) [Example 10, (2S,4R)-4-(2-Chlorophenylsulfonyl)-N-(1-cyanocyclopropyl)-1-(1-(tetrahydro-2H-thiopyran-4-yl)azetidine-2-carbonyl)pyrrolidine-2-carboxamide], the IC50 was 2.2 nM.
`CCOC(=O)N1CCC(N2CCC2C(=O)N2C[C@H](S(=O)(=O)c3ccccc3Cl)C[C@H]2C(=O)NC2(C#N)CC2)CC1` (stereo partly drawn) [Example 11, Ethyl 4-(2-((2S,4R)-4-(2-chlorophenylsulfonyl)-2-(1-cyanocyclopropylcarbamoyl)pyrrolidine-1-carbonyl)azetidin-1-yl)piperidine-1-carboxylate] gave an IC50 of 1.7 nM.
With `CS(=O)(=O)N1CCC(N2CCC2C(=O)N2C[C@H](S(=O)(=O)c3ccccc3Cl)C[C@H]2C(=O)NC2(C#N)CC2)CC1` (stereo partly drawn) [Example 12, (2S,4R)-4-(2-Chlorophenylsulfonyl)-N-(1-cyanocyclopropyl)-1-(1-(1-(methylsulfonyl)piperidin-4-yl)azetidine-2-carbonyl)pyrrolidine-2-carboxamide] the IC50 was 2.7 nM.
In the case of `CCOC(=O)N1CCC(N2CCC2C(=O)N2C[C@H](Sc3ccc(F)cc3Cl)C[C@H]2C(=O)NC2(C#N)CC2)CC1` (stereo partly shown) [Example 13], the IC50 is reported as 6.7 nM.
`CCOC(=O)N1CCC(N2CCC2C(=O)N2C[C@H](S(=O)(=O)c3ccc(F)cc3Cl)C[C@H]2C(=O)NC2(C#N)CC2)CC1` (stereo partly drawn) [Example 14, Ethyl 4-(2-((2S,4R)-4-(2-chloro-4-fluorophenylsulfonyl)-2-(1-cyanocyclopropylcarbamoyl)pyrrolidine-1-carbonyl)azetidin-1-yl)piperidine-1-carboxylate] showed an IC50 of 1.5 nM.
Work on `CCOC(=O)N1CCC(N2CCC2C(=O)N2C[C@H](Sc3ccc(Cl)cc3)C[C@H]2C(=O)NC2(C#N)CC2)CC1` (stereo partly drawn) [Example 15, Ethyl 4-(2-((2S,4R)-4-(4-chlorophenylthio)-2-(1-cyanocyclopropylcarbamoyl)pyrrolidine-1-carbonyl)azetidin-1-yl)piperidine-1-carboxylate] yielded an IC50 of 121 nM.
With `CCOC(=O)N1CCC(N2CCC2C(=O)N2C[C@H](Sc3ccccc3OC)C[C@H]2C(=O)NC2(C#N)CC2)CC1` (stereo partly drawn) [Example 16, Ethyl 4-(2-((2S,4R)-2-(1-cyanocyclopropylcarbamoyl)-4-(2-methoxyphenylthio)pyrrolidine-1-carbonyl)azetidin-1-yl)piperidine-1-carboxylate] the IC50 was 1740 nM.
For `CCOC(=O)N1CCC(N2CCC2C(=O)N2C[C@H](Sc3ccccc3OC(F)(F)F)C[C@H]2C(=O)NC2(C#N)CC2)CC1` (stereo partly drawn) [Example 17, Ethyl 4-(2-((2S,4R)-2-(1-cyanocyclopropylcarbamoyl)-4-(2-(trifluoromethoxy)phenylthio)pyrrolidine-1-carbonyl)azetidin-1-yl)piperidine-1-carboxylate], the IC50 was 65.5 nM.
Work on `CCOC(=O)N1CCC(N2CCC2C(=O)N2C[C@H](Sc3cccc(C(F)(F)F)c3)C[C@H]2C(=O)NC2(C#N)CC2)CC1` (stereo partly drawn) [Example 18, Ethyl 4-(2-((2S,4R)-2-(1-cyanocyclopropylcarbamoyl)-4-(3-(trifluoromethyl)phenylthio)pyrrolidine-1-carbonyl)azetidin-1-yl)piperidine-1-carboxylate] yielded an IC50 of 8 nM.
Molecule `CCOC(=O)N1CCC(N2CCC2C(=O)N2C[C@H](S(=O)(=O)c3cccc(Cl)c3)C[C@H]2C(=O)NC2(C#N)CC2)CC1` (stereo partly drawn) [Example 19, Ethyl 4-(2-((2S,4R)-4-(3-chlorophenylsulfonyl)-2-(1-cyanocyclopropylcarbamoyl)pyrrolidine-1-carbonyl)azetidin-1-yl)piperidine-1-carboxylate] has an IC50 of 1.8 nM.
Molecule `CCOC(=O)N1CCC(N2CCC2C(=O)N2C[C@H](S(=O)(=O)c3ccc(C)cc3)C[C@H]2C(=O)NC2(C#N)CC2)CC1` (stereo partly drawn) [Example 20, Ethyl 4-(2-((2S,4R)-2-(1-cyanocyclopropylcarbamoyl)-4-tosylpyrrolidine-1-carbonyl)azetidin-1-yl)piperidine-1-carboxylate] has an IC50 of 1.4 nM.
`CCOC(=O)N1CCC(N2CCC2C(=O)N2C[C@H](S(=O)(=O)c3ccccc3OC)C[C@H]2C(=O)NC2(C#N)CC2)CC1` (stereo partly drawn) [Example 21, Ethyl 4-(2-((2S,4R)-2-(1-cyanocyclopropylcarbamoyl)-4-(2-methoxyphenylsulfonyl)pyrrolidine-1-carbonyl)azetidin-1-yl)piperidine-1-carboxylate] showed an IC50 of 9.2 nM.
With `CCOC(=O)N1CCC(N2CCC2C(=O)N2C[C@H](S(=O)(=O)c3ccc(Cl)cc3)C[C@H]2C(=O)NC2(C#N)CC2)CC1` (stereo partly drawn) [Example 22, Ethyl 4-(2-((2S,4R)-4-(4-chlorophenylsulfonyl)-2-(1-cyanocyclopropylcarbamoyl)pyrrolidine-1-carbonyl)azetidin-1-yl)piperidine-1-carboxylate] the IC50 was 2.8 nM.
In the case of `CCOC(=O)N1CCC(N2CCC2C(=O)N2C[C@H](S(=O)(=O)c3ccccc3OC(F)(F)F)C[C@H]2C(=O)NC2(C#N)CC2)CC1` (stereo partly drawn) [Example 23, Ethyl 4-(2-((2S,4R)-2-(1-cyanocyclopropylcarbamoyl)-4-(2-(trifluoromethoxy)phenylsulfonyl)pyrrolidine-1-carbonyl)azetidin-1-yl)piperidine-1-carboxylate], the IC50 is reported as 4.1 nM.
With `CCOC(=O)N1CCC(N2CCC2C(=O)N2C[C@H](S(=O)(=O)c3cccc(C(F)(F)F)c3)C[C@H]2C(=O)NC2(C#N)CC2)CC1` (stereo partly drawn) [Example 24, Ethyl 4-(2-((2S,4R)-2-(1-cyanocyclopropylcarbamoyl)-4-(3-(trifluoromethyl)phenylsulfonyl)pyrrolidine-1-carbonyl)azetidin-1-yl)piperidine-1-carboxylate] the IC50 was 1.6 nM.
`N#CC1(NC(=O)[C@@H]2C[C@@H](S(=O)(=O)c3ccccc3Cl)CN2C(=O)C2(N3CCCCC3)CC2)CC1` [Example 25, (2S,4R)-4-(2-Chlorophenylsulfonyl)-N-(1-cyanocyclopropyl)-1-(1-(piperidin-1-yl)cyclopropanecarbonyl)pyrrolidine-2-carboxamide] gave an IC50 of 0.5 nM.
